“Also recorded” adds a separate entry of the source.

One data set deals with conscious rats. In words: Gastric emptying and gastrointestinal transit in conscious rats (barium sulfate test meal). In kind it is in vivo, rat. The settings on record: Wistar rats, p.o. 30 min before test meal; for gastric emptying compared to negative control / intestinal transit compared to negative control: all tested doses up to the 30-fold ED50 dose. The method, then:
In order to evaluate whether the compounds of the present invention lead to gastrointestinal side effects the compounds of the invention have been administered to rats 30 minutes before the rats were fed with a test meal comprising barium sulfate. After that it was tested whether gastric emptying and/or gastrointestinal transit in these rats was affected by the presence of these compounds.
The effects of the compounds Example 1 and Example 2 on gastric emptying and gastrointestinal transit in conscious rats has been investigated as described below.
Wistar rats of both sexes weighing 130-160 g (ages: male 7 wk, female 8 wk) were used. The animals are obtained from an approved local distributor, a minimum of four days quarantine is required before use, during which time the animals are maintained under routine animal care procedures. Groups of up to 5 animals are housed in cages in a room with controlled temperature and humidity and a light/dark cycle with the lights on from 6 a.m. to 6 p.m. The animals have access to normal rodent chow and water ad libitum. The animals are transported to the laboratory on the day of experimentation.
Gastric emptying as well as small intestinal propulsion are determined using a barium sulfate test meal.
Five rats Crl:WI(Han) of each sex (n=10) were used. The animals were deprived of food 17 h prior to the experiment but allowed free access to water. The drug under investigation (drug was suspended to the concentration of 10 ml/kg body weight in 0.5% Natrosol solution) or the negative control (vehicle alone was given 10 ml/kg body weight) was administered 30 min. (p.o.) before the test meal at doses calculated to be 3-fold, 10-fold or 30-fold the ED50 found in efficacy studies in the rat.
The test meal (suspension of 7.5 g barium sulfate in 10 ml salt-free water) is given orally by gavage at a dose of 2 ml/100 g body weight. Thirty minutes after the administration of the test meal the animals were killed in deep isoflurane anaesthesia by cervical dislocation. The stomach and the intestine were then exposed by laparatomy and removed.
The removed stomach was weighed, then incised, the contents removed and the empty stomach is weighed again.
The length of gut traversed with barium sulfate in relation to the whole length of the gut is determined by direct measurements using a ruler.
The gastric content was calculated from the weight difference between the filled and empty stomach and normalized to 100 g body weight. Thus, an increase in weight difference indicated an impaired gastric emptying, whereas a decrease in weight difference indicated an enhanced gastric emptying.
The length of gut traversed with barium sulphate (as judged by visual inspection) in relation to the whole length of the gut (from the pylorus to the rectum) is determined by direct measurements using a ruler.
Intestinal transit is calculated as the percentage movement of barium sulphate in the intestine in relation to the whole length of the gut. Consequently an increased intestinal transit length indicated an accelerated intestinal transit whereas a decreased intestinal transit length indicated decelerated intestinal transit.
Data are expressed as mean±standard deviation (SD). For each dose, comparisons were performed using an analysis of variance (ANOVA) and a post hoc Dunnett test to compare the various groups to the controls when the ANOVA was significant. p<0.05 was considered significant.

Data set [1] concerns LPS-induced neutrophil influx into bronchoalveolar lavage fluid of male Wistar rats. In words: LPS-induced lung inflammation model: inhibition of LPS-induced neutrophil influx into bronchoalveolar lavage fluid. In kind it is in vivo, rat. The settings on record: oral by gavage, BALF 4 hours after end of LPS exposure. The method, then: The anti-inflammatory activity of Examples 1 and 2 and of Prior art compounds A and D was assessed in an in vivo LPS-induced lung inflammation model in rats.
As a measure of the pharmacological potency of the above mentioned compounds the half-maximal effective dose (ED50) in regard to the inhibition of lipopolysaccharide-induced (LPS-induced) neutrophil influx into the bronchoalveolar lavage fluid (BALF) was determined by assessing the dose response relationship. Bacterial endotoxins (lipopolysaccharides [LPS]) are components of the outer bacterial cell membrane which play an important role in the pathogenesis of infections with gram-negative bacteria. It is known that inhalation of such aerosolized LPS induces a dose-dependent increase in neutrophils to lung tissues and airspaces in rats which may be detected by analyzing the amount of neutrophils in the bronchoalveolar lavage fluid (BALF). […]
Determination of neutrophil content of the BALF was performed using an ADVIA 120 blood hemacytometer (Bayer Diagnostics). Neutrophil data were normalised (Positive Control (=LPS treatment alone)=100%, Negative Control (no LPS treatment, administration of “vehicle only”)=0%) and expressed as percent of LPS control. The ED50 was calculated using a nonlinear fit (with the Graph Pad Prism software and a sigmoidal dose response fit). […]

For the compound `[O-][S+]1CCc2nc(N3CCC(c4ccc(Cl)cc4)CC3)nc(NC3(CO)CCC3)c21` (single isomer, unassigned) [Example 1], the “gastric emptying (weight difference per body weight) compared to negative control” value was “no relevant differences” in the data set on conscious rats (3-fold ED50 dose), “no relevant differences” with conscious rats (10-fold ED50 dose) and “only a very moderate enhancement of the weight difference per body weight” in the data set with conscious rats (30-fold ED50 dose). The “gastric emptying compared to negative control” value with conscious rats is recorded as “neither showed a substantially enhanced or impaired gastric emptying”. The “intestinal transit compared to negative control” value in the data set with conscious rats was “no significant differences”.
For the compound `[O-][S+]1CCc2nc(N3CCC(c4ncc(Cl)cn4)CC3)nc(NC3(CO)CCC3)c21` (single isomer, unassigned) [Example 2], in the data set on conscious rats, the “gastric emptying compared to negative control” value was “neither showed a substantially enhanced or impaired gastric emptying; also recorded: no relevant differences” and the “intestinal transit compared to negative control” value was “no relevant differences”.
For the compound `[O-][S+]1CCc2nc(N3CCC(c4ccc(Cl)cc4)CC3)nc(NC3(CO)CC3)c21` (stereo not drawn) [Prior art compound A], the “ED50 (inhibition of LPS-induced neutrophil influx into BALF)” value in data set [1] was 1.13 mg/kg body weight.
With `[O-][S+]1CCc2nc(N3CCC(c4cccc(Cl)c4)CC3)nc(NC3(CO)CC3)c21` (stereo not drawn) [Prior art compound D], the “ED50 (inhibition of LPS-induced neutrophil influx into BALF)” value in data set [1] stood at 6.66 mg/kg body weight.

(Values after patent publication US9802954B2, “Piperidino-dihydrothienopyrimidine sulfoxides and their use for treating COPD and asthma” (Boehringer Ingelheim International GmbH, priority 2011, dated 2017).)
